Drawing on ChEMBL document CHEMBL1122277, “l-1,2,3,4-Tetrahydro-8-methoxy-5-(methylthio)-2-naphthalenamine: a potent and selective agonist at alpha 1-adrenoceptors” (J Med Chem, 1983), this text covers EC50 and KB for three compounds.

Molecules are shown by their SMILES.

What all share (type): functional
Assay [1] is filed under the species Oryctolagus cuniculus. Description: (§1) Alpha-1-adrenergic potency measured in the isolated rabbit ear artery.
The species named for assay [2] is Oryctolagus cuniculus. Described as §1. This is another data set of the same source.
For assay [3], the system named is Oryctolagus cuniculus. Description: Blockade of the constrictor response to exogenously administered L-norepinephrine.

What is called EC50 is the concentration giving half of the maximal effect. A lower EC50 goes with a more potent agent. Take `COc1ccc(SC)c2c1CC(N)CC2` (centres undefined): the EC50 in the assay filed under Oryctolagus cuniculus [1] turned out to be 0.06 µM; in the assay listed under Oryctolagus cuniculus [2], 0.009 µM. `COc1cc2nc(N3CCN(C(=O)c4ccco4)CC3)nc(N)c2cc1OC` [PRAZOSIN]: the KB with Oryctolagus cuniculus [3] is recorded as 2.7 nM. Regarding `COC(=O)[C@@H]1[C@H]2C[C@H]3c4[nH]c5ccccc5c4CCN3C[C@@H]2CC[C@@H]1O` [YOHIMBINE], in the assay on Oryctolagus cuniculus [3], the KB worked out at 4000 nM.
